Reference: PMC8389922, “First-in-Class Cyclic Temporin L Analogue: Design, Synthesis, and Antimicrobial Assessment” (Journal of Medicinal Chemistry, 2021)
Values after ≈ are worked out from the molar mass of the structure shown. Bridge positions count the residues as written; N and C are the ends. Square brackets hold non-standard residues; d marks the D form. Peptide text beside a SMILES is read from it.

Tests used:
S. aureus ATCC 25923 = format: cell-based, Staphylococcus aureus
In short: (§1)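 MICs were determined by broth microdilution, with bacteria at a final 1 × 10^6 CFU/mL and peptides tested from 100 to 0.78 μM.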

B. megaterium Bm11 = format: cell-based, Bacillus megaterium
In short: as §1

E. coli ATCC 25922 = format: cell-based, Escherichia coli
In short: as §1

A. baumannii ATCC 19606 = format: cell-based, Acinetobacter baumannii
In short: as §1

[1] = test system: HaCaT cells (human immortalized keratinocytes); assay: Cytotoxicity, MTT assay; format: cell-based
Description: In particular, the cytotoxicity was evaluated by the 3-(4,5-dimethylthiazol-2-yl)-2,5-diphenyltetrazolium bromide (MTT) assay and is expressed as the percentage of viability of peptide-treated cells compared to that of untreated control cells. As expected, after 2 and 24 h treatments, the cell viability decreased in a concentration-dependent manner for all peptides (Figure 2).
Figure 2 Viability of peptide-treated HaCaT cells evaluated by MTT assay at 2 h (a) and 24 h (b). All data are expressed as a percentage with respect to the untreated control cells and are the mean of three independent experiments ± standard error of the mean (SEM).
The human immortalized keratinocytes HaCaT cells (AddexBio, San Diego, CA) were cultured in Dulbecco’s modified Eagle’s medium containing 4 mM glutamine (DMEMg), supplemented with 10% heat-inactivated fetal bovine serum (FBS) and 0.1 mg/mL of penicillin and streptomycin, at 37 °C and 5% CO2, in 25 or 75 cm^2 flasks.
The quantification of cell viability was performed by the in vitro MTT [3-(4,5-dimethylthiazol-2-yl)-2,5-diphenyltetrazolium bromide] assay, as previously reported,[77] measuring the conversion of the soluble yellow dye MTT to insoluble purple formazan by mitochondrial dehydrogenases. More precisely, 4 × 10^4 HaCaT cells, suspended in DMEMg supplemented with 2% FBS without antibiotics, were plated in each well of the 96-well plate. After overnight incubation at 37 °C and 5% CO2, the medium of each well was replaced by DMEMg containing the peptide at different concentrations, as indicated. Controls were HaCaT cells not treated with the peptide. After 2 and 24 h of incubation at 37 °C and 5% CO2, the medium was discarded; 0.5 mg/mL of MTT in Hank’s buffer was added to each well, and the plate was incubated for further 4 h. Acidified isopropanol was then added to dissolve formazan crystals, and the absorbance of each well at 570 nm was measured using a microplate reader (Infinite M200; Tecan, Salzburg, Austria). The purple color intensity is directly proportional to the number of viable cells, which was expressed as a percentage compared to that of untreated control cells (100%).

[2] = CD spectroscopy, secondary structure content (DichroWeb); format: physicochemical; settings: for helix-1 (regular α-helix) / helix-2 (distorted α-helix) / random / β-strand-1 (regular β-strand) / β-strand-2 (distorted β-strand) / β-turn: peptide 50 μM, 25 °C
Description: The secondary structures of the linear peptide 9 and its stapled analogues 12, 17, and 24–26 were explored by circular dichroism (CD). CD spectroscopy studies were performed in water, and SDS or DPC micelles (20 mM) were used as mimics of the bacterial or mammalian membranes, respectively.[60]
The secondary structure content was predicted based on the CD spectra from 190 to 260 nm using the online server for protein secondary structure analyses, DichroWeb.[61] […] The hydrocarbon-bridged peptide 25 was slightly helical and structured in water, with weak ellipticity at 220 nm. Peptide 25 contains ∼13% regular helix and ∼10% distorted helix, according to the DichroWeb prediction.
All spectra were measured in the 260–190 nm spectral range, 1 nm bandwidth, 4 accumulations, and 100 nm/min scanning speed.[60] Each peptide was dissolved in water to prepare a 1 mM peptide stock solution. The CD spectra were performed in water, in SDS (20 mM) and in DPC (20 mM) using a peptide concentration of 50 μM. The secondary structure content of the peptides was predicted using the online server for protein secondary structure analyses DichroWeb.[61] Input and output units and the wavelength step were θ (mdeg) and 1.0 nm, respectively. The algorithm used was CONTIN-LL,[83] and reference database was set-7. When we have NRMSD > 0.100, we used the CDSSTR method.[83]

[3] = Peptide aggregation in LPS (ThT fluorescence); format: physicochemical; settings: peptide 20 μM, LPS 1 mg/mL, ThT 25 μM, 1 h incubation, ThT emission 482 nm
Description: The peptides were incubated with LPS (1 mg/mL) at a concentration of 20 μM, and ThT (25 μM) was used as a fluorophore to measure aggregation.
Figure 5 Aggregate formation in the interaction between peptides 9 (a), 12 (b), and 17 (c) (20 μM) and LPS (1 mg/mL) monitored by ThT fluorescence (25 μM). Peptide alone and ThT alone were used as controls.
After 1 h, we evaluated the peptide aggregation measuring ThT fluorescence emission at 482 nm (slit width, 5 nm) after excitation at 450 nm (slit width, 10 nm). ThT spectra at 25 μM, and peptide alone at 20 μM were carried out as control.

[4] = CD in DPC micelles (20 mM), DichroWeb
[5] = CD in SDS micelles (20 mM), DichroWeb
[6] = CD in water, DichroWeb (CONTIN-LL, set-7; CDSSTR if NRMSD > 0.100)

Row | SMILES | MIC S. aureus ATCC 25923 (S. aureus ATCC 25923) | MIC B. megaterium Bm11 (B. megaterium Bm11) | MIC E. coli ATCC 25922 (E. coli ATCC 25922) | MIC A. baumannii ATCC 19606 (A. baumannii ATCC 19606) | helix-1 (regular α-helix) [2, 4] | helix-2 (distorted α-helix) [2, 4] | random [2, 4] | β-strand-1 (regular β-strand) [2, 4] | β-strand-2 (distorted β-strand) [2, 4] | β-turn [2, 4] | helix-1 (regular α-helix) [2, 5] | helix-2 (distorted α-helix) [2, 5] | random [2, 5] | β-strand-1 (regular β-strand) [2, 5] | β-strand-2 (distorted β-strand) [2, 5] | β-turn [2, 5] | helix-2 (distorted α-helix) ([2]; CD in water, DichroWeb) | random ([2]; CD in water, DichroWeb) | β-strand-1 (regular β-strand) ([2]; CD in water, DichroWeb) | β-strand-2 (distorted β-strand) ([2]; CD in water, DichroWeb) | other results
1 | CC[C@H](C)[C@H](NC(=O)[C@H](CCCNC(=N)N)NC(=O)[C@@H]1CCC(=O)NCCCC[C@H](NC(=O)[C@H](Cc2ccccc2)NC(=O)[C@H](Cc2c[nH]c3ccccc23)NC(=O)[C@@H]2CCCN2C(=O)[C@@H](NC(=O)[C@@H](N)Cc2ccccc2)C(C)C)C(=O)N[C@@H](CCCCN)C(=O)N[C@@H](Cc2ccccc2)C(=O)N[C@H](CC(C)C)C(=O)N1)C(=O)N[C@@H](CC(C)C)C(N)=O [compound 12] (H-FVPWFKKF[dL]ERIL-NH2; lactam 6-10) | 3.12 µM (≈ 5.32 µg/mL) | 1.56 µM (≈ 2.66 µg/mL) | 25 µM (≈ 42.6 µg/mL) | 3.12 µM (≈ 5.32 µg/mL) | 54% | 21% | 13% | 1% | 4% | 7% | 58% | 24% | 5% | 0% | 3% | 10% | 2% | 55% | 18% | 8% | HaCaT cell viability ([1]; 25 μM, same profile after either 2 or 24 h): 94%; HaCaT cell viability ([1]; 50 μM, same profile after either 2 or 24 h): 60%; helix percentage (total) in SDS solution ([2]; CD in SDS micelles (20 mM), DichroWeb, regular plus distorted helix): about 80%; β-turn ([2]; CD in water, DichroWeb): 15%; helix-1 (regular α-helix) [2, 6]: 0%; aggregation in the presence of LPS [3]: lowest aggregation
2 | CC[C@H](C)[C@H](NC(=O)[C@H](CCCNC(=N)N)NC(=O)[C@@H]1CCCCn2cc(nn2)C[C@H](NC(=O)[C@H](Cc2ccccc2)NC(=O)[C@H](Cc2c[nH]c3ccccc23)NC(=O)[C@@H]2CCCN2C(=O)[C@@H](NC(=O)[C@@H](N)Cc2ccccc2)C(C)C)C(=O)N[C@@H](CCCCN)C(=O)N[C@@H](Cc2ccccc2)C(=O)NC(CC(C)C)C(=O)N1)C(=O)N[C@@H](CC(C)C)C(N)=O (stereo in doubt) [compound 17] | 3.12 µM (≈ 5.35 µg/mL) | 1.56 µM (≈ 2.67 µg/mL) | >100 µM | 25 µM (≈ 42.9 µg/mL) | 38% | 18% | 19% | 9% | 7% | 10% | 32% | 16% | 16% | 13% | 7% | 15% | 4% | 49% | 19% | 9% | HaCaT cell viability ([1]; 2 h treatment, 25 μM, vs untreated control, mean of three independent experiments): 60–70%; HaCaT cell viability ([1]; 2 h treatment, 50 μM, vs untreated control, mean of three independent experiments): less than 40%; HaCaT cell viability ([1]; 24 h treatment (sentence continues from 50 μM), vs untreated control): less than 20%; β-turn ([2]; CD in water, DichroWeb): 16%; helix-1 (regular α-helix) [2, 6]: 2%; aggregation in the presence of LPS [3]: higher ability to aggregate
